pIC50: −log10 of the molar value. Several values for one entry are separate records, joined by “and”; a condition that tells them apart may be missing. Identical values can stand only once.
Experiments:
mouse spleen lymphocytes = assay: ConA-induced proliferation of mouse spleen lymphocytes, MTT (Example 8); assay type: cell-based; settings: 48 h, 5 μg/mL ConA
Description: In this example, the glaucocalyxin A derivatives and pharmaceutically acceptable salts thereof were detected for the effect thereof on ConA-induced proliferation of mouse spleen lymphocytes.
2×10^7/mL cell suspension was prepared and a 5 μg/μL ConA stock solution was added thereto at a final concentration of 5 μg/mL. The resulting mixture was inoculated into a 96-well culture plate at 0.1 mL per well. Then 0.1 mL of test compound at different concentrations was added to each well. Triplicate or quadruplicate wells were set up for each group, and a vehicle control group (without compound), a stimulant control group (with ConA, without compound, and without vehicle), a cell control group (without ConA, without compound, and without vehicle), and a blank medium control group (without cells, a well for null adjustment) were also set up, and cultured at 37° C., 5% CO2 for 48 h. MTT solution at 5 mg/mL was added at 20 μl per well, and cultured for an additional 4 hours. The culture plate was taken out and centrifuged at 1000 rpm for 10 min. The supernatant of each well was aspirated, and 100 μL of SDS cell lysis solution was added to each well, and cultured overnight. On the next day, the absorbance at 550 nm (OD550nm) was measured on an enzyme-linked immunoassay analyzer. The results were expressed as the mean OD550nm value of the triplicates or quadruplicates±standard deviation (x±sd). SPSS software version 17.0 was used for statistical analysis of the mean values, that is, the vehicle group was compared with the stimulant group, and the test group of each compound concentration was compared with the corresponding vehicle control group. The cell survival rate of each group was calculated according to the mean value for the compound treatment group and the mean value for the vehicle control group, that is, the cell survival rate (%)=the mean value for the compound treatment group/the mean value for the vehicle control group×100%. A linear regression equation was obtained by plotting the cell survival rate of each group against the concentration of the test compound, statistical test of the correlation coefficient was conducted, and then the IC50 value was determined.

BALB/c mice = assay: Acute toxicity in BALB/c mice, single tail-vein injection (Example 9); assay type: in vivo, mouse; settings: single intravenous injection
Source text: In this example, Compound 23 and Compound 24 were detected for their acute toxicities, and the detection method was as follows.
Experimental procedure: 40 BALB/c mice, half male and half female, were randomly divided into groups after weight measurement. The weight of an individual should be within the range of the average body weight±20%. Animals should be allowed to acclimatize to the environment for at least 5 days before the test, and healthy (if female, it must be un-pregnant) mice were selected as test animals. The main inspections during the acclimatization period included: whether it met the quality indicators required at the time of ordering; general state check; and whether the weight reached the weight range required by the test. Unqualified abnormal animals were not included in this test. A single tail-vein injection was administrated to the mice at a low, medium, or high dose, which was 5 mg/kg, 10 mg/kg, or 40 mg/kg respectively according to a blank preparation pre-test. An equal volume of vehicle was intravenously injected to establish a control group.
Mice were observed once respectively at 0 to 2 hours and 4 to 6 hours after each administration. If toxic symptoms occurred, the number of observations could be increased. (2) Gross anatomy observation: All the surviving mice in each group were dissected and observed on the 8th day of the experiment. The abnormal organs and tissues found in the observation of administration sites and in the gross anatomy observation that might be related to the test samples were photographed and recorded. (3) Disposal of dying animals: The state of the mouse and the observation time were recorded, and the body weight was measured. (4) Disposal of dead animals: The time of death or the time when the death was found was recorded, the body weight was measured, and then the dissection was quickly performed for gross observation to speculate the cause of death.

[1] = tested on: xylene-induced auricular swelling in mice; assay: Xylene-induced auricular swelling in mice (Example 7); assay type: in vivo, mouse; settings: 7 consecutive days, xylene on 8th day
Description: In this example, the glaucocalyxin A derivatives and pharmaceutically acceptable salts thereof were detected for the inhibitory effect thereof on xylene-induced auricular swelling in mice. Compound 23 was used as an exemplary compound, and the detection method was as follows.
20 mice were randomly divided into 4 groups with 5 mice in each group, which were blank control group, 30 mg/kg dexamethasone treatment group, Compound 23 (10 mg/kg) treatment group, and Compound 23 (50 mg/kg) treatment group, respectively. 0.25-0.3 mL depending on the body weight was intragastrically administrated for 7 consecutive days, and an equal volume of 5% glucose injection was administrated to the blank group. On the 8th day, xylene was used to produce a model of auricular swelling in the right auricle of mice. 15 μl of xylene, an inflammatory inducer, was applied to both sides of the right auricle of each mouse, and the left auricle was left un-treated as a normal auricle control. After 1 hour, the mice were sacrificed by cervical dislocation. Both auricles were cut off along the auricle baseline, and then punched at the same position by using a puncher with a diameter of 8 mm to give auricle pieces, which were then weighed on an electronic analytical balance. The auricular swelling rate and the auricular swelling inhibitory rate were calculated according to the following formula. […]

Br.C=C1C(=O)C23C(O)CC4C(C)(C)c5nc(N(C)C)sc5CC4(C)C2CCC1C3O (stereo not shown) [Compound 23]
OD550nm value (x ± sd) (mouse spleen lymphocytes; 0.78125 μg/mL): 1.14
Survival rate (%) (mouse spleen lymphocytes; 0.78125 μg/mL): 98%
OD550nm value (x ± sd) (mouse spleen lymphocytes; 1.5625 μg/mL): 1.18
Survival rate (%) (mouse spleen lymphocytes; 1.5625 μg/mL): 101%
OD550nm value (x ± sd) (mouse spleen lymphocytes; 3.125 μg/mL): 0.52
Survival rate (%) (mouse spleen lymphocytes; 3.125 μg/mL): 45%
OD550nm value (x ± sd) (mouse spleen lymphocytes; 6.25 μg/mL): 0.29
Survival rate (%) (mouse spleen lymphocytes; 6.25 μg/mL): 25%
OD550nm value (x ± sd) (mouse spleen lymphocytes; 12.5 μg/mL): 0.07
Survival rate (%) (mouse spleen lymphocytes; 12.5 μg/mL): 6%
OD550nm value (x ± sd) (mouse spleen lymphocytes; 25 μg/mL): 0.02
Survival rate (%) (mouse spleen lymphocytes; 25 μg/mL): 2%
OD550nm value (x ± sd) (mouse spleen lymphocytes; 50 μg/mL): 0.02
Survival rate (%) (mouse spleen lymphocytes; 50 μg/mL): 2%
OD550nm value (x ± sd) (mouse spleen lymphocytes; 100 μg/mL): 0.02
Survival rate (%) (mouse spleen lymphocytes; 100 μg/mL): 1%
pIC50 (mouse spleen lymphocytes; linear regression): ~5.03 and 5.03
IC50 (μg/mL) (mouse spleen lymphocytes; linear regression): IC50 = 4.00 μg/mL
effect on ConA-induced proliferation of mouse spleen lymphocytes (in words) (mouse spleen lymphocytes; range of concentrations tested): significant effect
comparative safety (BALB/c mice): safer than Compound 24
toxic side effects (BALB/c mice; 5 mg/kg): No obvious toxic side effects
weight loss and decreased diet (BALB/c mice; 5 mg/kg): no significant weight loss and decreased diet
toxic side effects (BALB/c mice; 10 mg/kg): No obvious toxic side effects
weight loss and decreased diet (BALB/c mice; 10 mg/kg): no significant weight loss and decreased diet
toxic side effects (BALB/c mice; 40 mg/kg): No obvious toxic side effects
weight loss and decreased diet (BALB/c mice; 40 mg/kg): no significant weight loss and decreased diet
inhibition of auricular swelling ([1]; 10 mg/kg intragastric): effective
inhibition of auricular swelling ([1]; 50 mg/kg intragastric): effective

— patent US11406622B2, “Glaucocalyxin a derivative, pharmaceutically acceptable salt thereof, or pharmaceutical composition thereof and uses thereof in preparation of drugs for treating psoriasis” (SUZHOU PHARMAVAN CO., LTD., priority 2017, dated 2022)
